Data: the CheMixHub drug solubility set

Test: xn = mol fraction of the nth substance listed, in the solute-free solvent

COC(=O)Nc1nc2ccccc2[nH]1 + CCO + O
solubility (g/100 g solution)
Conditions	278.15 K	283.15 K	288.15 K	293.15 K	298.15 K	303.15 K	308.15 K	313.15 K	318.15 K
x2 = 0.0417	0.00112	0.00135	0.00165	0.00201	0.00246	0.00289	0.00343	0.00403	0.00475
x2 = 0.08923	0.00223	0.00272	0.0034	0.00411	0.00508	0.00599	0.00715	0.00849	0.01
x2 = 0.1435	0.00325	0.00396	0.00501	0.00619	0.00769	0.0092	0.0111	0.0133	0.0158
x2 = 0.2067	0.00379	0.00471	0.00609	0.00761	0.00949	0.0116	0.0142	0.0172	0.0207
x2 = 0.2813	0.00391	0.00497	0.00649	0.00846	0.0105	0.013	0.0162	0.0199	0.0243
x2 = 0.3701	0.00383	0.0049	0.00658	0.00849	0.011	0.0138	0.0174	0.0219	0.0271
x2 = 0.4762	0.00369	0.0048	0.00651	0.00862	0.0114	0.0146	0.0187	0.0237	0.0298
x2 = 0.6102	0.00358	0.00477	0.00664	0.00884	0.0118	0.0155	0.0202	0.0261	0.0332
x2 = 0.7803	0.0035	0.00477	0.0068	0.0092	0.0125	0.0167	0.0221	0.0289	0.0373

c1ccc2c(c1)CCc1ccccc1N2 + CCO + O
solubility (g/100 g solution)
Conditions	283.15 K	288.15 K	293.15 K	298.15 K	303.15 K	308.15 K	313.15 K	318.15 K	323.15 K	328.15 K
x2 = 0.04179	0.0221	0.0315	0.0433	0.0609	0.0803	0.109	0.143	0.188	0.245	0.315
x2 = 0.08913	0.114	0.158	0.211	0.288	0.371	0.489	0.626	0.801	1.02	1.28
x2 = 0.1443	0.214	0.292	0.388	0.52	0.666	0.866	1.1	1.39	1.75	2.17
x2 = 0.207	0.24	0.326	0.432	0.576	0.738	0.954	1.21	1.53	1.91	2.38
x2 = 0.2814	0.229	0.311	0.414	0.548	0.706	0.909	1.15	1.46	1.82	2.27
x2 = 0.3697	0.231	0.313	0.417	0.55	0.71	0.909	1.15	1.46	1.82	2.26
x2 = 0.4785	0.269	0.363	0.465	0.612	0.779	1	1.28	1.62	2.02	2.49
x2 = 0.6105	0.316	0.423	0.561	0.728	0.94	1.19	1.5	1.89	2.33	2.88
x2 = 0.7769	0.374	0.498	0.659	0.848	1.09	1.37	1.73	2.16	2.66	3.28

CC(C)C(=O)Nc1ccc([N+](=O)[O-])c(C(F)(F)F)c1 + CCOC(C)=O + CC(C)O
solubility (g/100 g solution)
Conditions	278.15 K	283.15 K	288.15 K	293.15 K	298.15 K	303.15 K	308.15 K	313.15 K	318.15 K	323.15 K
x2 = 0.1	19.4	22.7	26.3	30.2	33.9	38.7	43.5	48.3	53	57.4
x2 = 0.2	28.6	30.8	33.4	36.8	40.7	44.4	48.2	51.8	55.6	59.2
x2 = 0.3	30.6	34.2	38	41.5	44.9	48.2	51.3	54.9	58.2	61.5
x2 = 0.4	32.7	36.3	39.5	42.8	45.9	49	52.5	55.8	58.7	61.9
x2 = 0.5	33.7	37.2	40.7	44	46.9	49.8	52.9	56.1	59.3	62.1
x2 = 0.6	34.3	38	41.5	44.7	47.6	50.4	53.3	56.4	59.4	62.5
x2 = 0.7	34.5	37.8	41	44.3	47.4	50.3	53.4	56.4	59.4	62.4
x2 = 0.8	34.2	37.7	41.3	44.7	47.8	50.9	53.6	56.7	59.8	62.9
x2 = 0.9	34.4	37.9	41.5	44.8	47.8	51.1	53.9	56.6	59.5	62.6
